Non-standard residues stand in square brackets, D forms with d. Residues, ends and D or L forms follow the SMILES beside them. Ahx = NCCCCCC(=O)O
Biological target: T1, plasmin (Homo sapiens, UniProt P00747)
T1 construct: The amino-terminal heavy chain of PL consists of five kringle domains; The C-terminal light chain of plasmin is a typical serine protease (SP); purchased Chromogenix (Milano, Italy)
Assay: Amidolytic activity of plasmin (substrate S-2251)
Assay type: biochemical
Details: amidolytic activity, S-2251, tris buffer pH 7.4
Procedure: (§1) Determination of amidolytic activity was performed as previously described by (Okada et al. [1988]). Buffer and 0.1 ml of enzyme solution was added to 0.2 ml of examined compound dissolved in 0.15 M NaCl (1–15) (as control 0.15 M NaCl). The buffer and the enzyme solution included: • tris buffer—0.6 ml (pH 8.8), enzyme: urokinase (50 units/ml), synthetic substrate: S-2444 (0.1 ml, 3 mM); • tris buffer—0.5 ml (pH 8.4), enzyme: thrombin (1 units/ml), synthetic substrate: S-2238 (0.2 ml, 0.75 mM); • tris buffer—0.5 ml (pH 7.4), enzyme: plasmin (0.4 units/ml), synthetic substrate: S-2251 (0.2 ml, 3 mM); • […]—0.5 ml (pH 7.5), enzyme: trypsin (0.4 units/ml), synthetic substrate: Bzl-L-Arg–pNA.HCl (0.2 ml, 8 mM); • tris buffer—0.6 ml (pH 9.0), enzyme: kallikrein (3 units/ml), synthetic substrate: S-2266 (0.1 ml, 75 mM); • tris buffer—0.6 ml (pH 8.4), enzyme: t-PA ([…]), synthetic substrate: S-2288 (0.1 ml, 10 mM).
(§2) IC50 values were determined (IC50, Inhibitor Concentration, the concentration at which enzyme activity is inhibited by 50 %). Our results were compared with the 6-aminohexanoic acid.

T1 sequence (P00747 97-580 limits assumed): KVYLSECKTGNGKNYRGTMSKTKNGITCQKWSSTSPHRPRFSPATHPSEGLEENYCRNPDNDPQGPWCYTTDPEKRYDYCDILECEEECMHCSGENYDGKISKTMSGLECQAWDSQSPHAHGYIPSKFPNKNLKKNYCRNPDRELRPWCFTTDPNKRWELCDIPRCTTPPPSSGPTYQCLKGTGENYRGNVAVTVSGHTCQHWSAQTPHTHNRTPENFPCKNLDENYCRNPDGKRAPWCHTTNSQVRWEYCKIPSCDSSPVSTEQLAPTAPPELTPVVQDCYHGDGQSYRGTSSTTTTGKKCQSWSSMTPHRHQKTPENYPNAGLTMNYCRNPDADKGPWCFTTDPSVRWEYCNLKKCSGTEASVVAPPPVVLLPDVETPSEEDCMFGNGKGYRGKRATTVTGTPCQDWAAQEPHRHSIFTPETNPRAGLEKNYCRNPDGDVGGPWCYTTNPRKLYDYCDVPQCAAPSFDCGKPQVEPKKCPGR
T1 sequence (P00747 581-810 limits assumed): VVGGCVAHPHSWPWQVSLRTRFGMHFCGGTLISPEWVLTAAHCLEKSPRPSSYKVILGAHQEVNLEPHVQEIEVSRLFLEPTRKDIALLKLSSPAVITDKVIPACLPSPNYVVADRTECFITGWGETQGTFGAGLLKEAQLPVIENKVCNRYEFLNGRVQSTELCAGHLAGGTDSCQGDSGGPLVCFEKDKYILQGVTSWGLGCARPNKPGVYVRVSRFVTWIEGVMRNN

Row | Compound | IC50
1 | NCCCC[C@H](NC(=O)[C@@H](N)Cc1ccccc1)C(=O)NCCCCCC(N)=O [Compound 6, H–Phe–Lys–EACA–NH2] (H-Phe-Lys-[Ahx]-NH2) | 1.43 ± 0.11 mM
2 | C[C@@H](N)C(=O)N[C@@H](Cc1ccccc1)C(=O)N[C@@H](CCCCN)C(=O)NCCCCCC(N)=O [Compound 7, H–D-Ala–Phe–Lys–EACA–NH2] (H-[dA]FK[Ahx]-NH2) | 0.02 ± 0.0016 mM
3 | C[C@H](N)C(=O)N[C@@H](Cc1ccccc1)C(=O)N[C@@H](CCCCN)C(=O)NCCCCCC(N)=O [Compound 8, H–Ala–Phe–Lys–EACA–NH2] (H-AFK[Ahx]-NH2) | 0.13 ± 0.01 mM

Second part, the molecule after the results:

Row | IC50 | Compound
4 | 1.55 ± 0.12 mM | C[C@@H](N)C(=O)N[C@@H](Cc1ccccc1)C(=O)NCCCCCC(N)=O [Compound 9, H–D-Ala–Phe–EACA–NH2] (H-[dA]-Phe-[Ahx]-NH2)
5 | > 20 mM | C[C@H](N)C(=O)N[C@@H](Cc1ccccc1)C(=O)NCCCCCC(N)=O [Compound 10, H–Ala–Phe–EACA–NH2] (H-Ala-Phe-[Ahx]-NH2)
6 | 4.82 ± 0.39 mM | NCCCCCNC(=O)CCCCCNC(=O)[C@H](CCCCN)NC(=O)[C@@H](N)Cc1ccccc1 [Compound 11, H–Phe–Lys–EACA–NH–(CH2)5–NH2]

Biological target: T2, thrombin (Bos taurus, UniProt P00735)
T2 construct: purchased Lubelska Wytwórnia Szczepionek (Lublin, Poland)
Assay: Amidolytic activity of thrombin (substrate S-2238)
Assay type: biochemical
Details: amidolytic activity, S-2238, tris buffer pH 8.4
Procedure: as §1, §2

Row | Compound | IC50
7 | NCCCC[C@H](NC(=O)[C@@H](N)Cc1ccccc1)C(=O)NCCCCCC(N)=O [Compound 6, H–Phe–Lys–EACA–NH2] (H-Phe-Lys-[Ahx]-NH2) | > 20 mM
8 | C[C@@H](N)C(=O)N[C@@H](Cc1ccccc1)C(=O)N[C@@H](CCCCN)C(=O)NCCCCCC(N)=O [Compound 7, H–D-Ala–Phe–Lys–EACA–NH2] (H-[dA]FK[Ahx]-NH2) | > 20 mM
9 | C[C@H](N)C(=O)N[C@@H](Cc1ccccc1)C(=O)N[C@@H](CCCCN)C(=O)NCCCCCC(N)=O [Compound 8, H–Ala–Phe–Lys–EACA–NH2] (H-AFK[Ahx]-NH2) | 7.59 ± 0.61 mM

Second part, the molecule after the results:

Row | IC50 | Compound
10 | > 20 mM | C[C@@H](N)C(=O)N[C@@H](Cc1ccccc1)C(=O)NCCCCCC(N)=O [Compound 9, H–D-Ala–Phe–EACA–NH2] (H-[dA]-Phe-[Ahx]-NH2)
11 | > 20 mM | C[C@H](N)C(=O)N[C@@H](Cc1ccccc1)C(=O)NCCCCCC(N)=O [Compound 10, H–Ala–Phe–EACA–NH2] (H-Ala-Phe-[Ahx]-NH2)
12 | > 20 mM | NCCCCCNC(=O)CCCCCNC(=O)[C@H](CCCCN)NC(=O)[C@@H](N)Cc1ccccc1 [Compound 11, H–Phe–Lys–EACA–NH–(CH2)5–NH2]

Biological target: T3, tPA (Homo sapiens, UniProt P00750)
T3 construct: purchased Boehringer Ingelheim GmbH (Ingelheim, Germany)
T3 sequence (P00750 36-562): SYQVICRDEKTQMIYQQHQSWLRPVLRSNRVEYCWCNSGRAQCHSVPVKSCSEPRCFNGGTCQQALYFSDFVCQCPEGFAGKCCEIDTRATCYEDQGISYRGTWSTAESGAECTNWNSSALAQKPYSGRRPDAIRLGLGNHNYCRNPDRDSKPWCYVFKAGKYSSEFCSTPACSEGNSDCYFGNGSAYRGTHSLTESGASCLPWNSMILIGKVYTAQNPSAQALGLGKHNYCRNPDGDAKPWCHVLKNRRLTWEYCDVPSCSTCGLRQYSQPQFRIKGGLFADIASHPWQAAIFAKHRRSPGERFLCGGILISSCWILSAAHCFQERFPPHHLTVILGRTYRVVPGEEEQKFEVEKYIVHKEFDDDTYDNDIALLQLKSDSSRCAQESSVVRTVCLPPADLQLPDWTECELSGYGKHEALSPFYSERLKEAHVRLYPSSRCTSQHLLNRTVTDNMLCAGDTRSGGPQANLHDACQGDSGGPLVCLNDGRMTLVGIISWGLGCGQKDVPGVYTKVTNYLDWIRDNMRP
Assay: Amidolytic activity of t-PA (substrate S-2288)
Assay type: biochemical
Details: amidolytic activity, S-2288, tris buffer pH 8.4
Procedure: as §1, §2

Row | Compound | IC50
13 | NCCCC[C@H](NC(=O)[C@@H](N)Cc1ccccc1)C(=O)NCCCCCC(N)=O [Compound 6, H–Phe–Lys–EACA–NH2] (H-Phe-Lys-[Ahx]-NH2) | > 20 mM
14 | C[C@@H](N)C(=O)N[C@@H](Cc1ccccc1)C(=O)N[C@@H](CCCCN)C(=O)NCCCCCC(N)=O [Compound 7, H–D-Ala–Phe–Lys–EACA–NH2] (H-[dA]FK[Ahx]-NH2) | > 20 mM
15 | C[C@H](N)C(=O)N[C@@H](Cc1ccccc1)C(=O)N[C@@H](CCCCN)C(=O)NCCCCCC(N)=O [Compound 8, H–Ala–Phe–Lys–EACA–NH2] (H-AFK[Ahx]-NH2) | > 20 mM

More lines, now with the values ahead:

Row | IC50 | Compound
16 | > 20 mM | C[C@@H](N)C(=O)N[C@@H](Cc1ccccc1)C(=O)NCCCCCC(N)=O [Compound 9, H–D-Ala–Phe–EACA–NH2] (H-[dA]-Phe-[Ahx]-NH2)
17 | > 20 mM | C[C@H](N)C(=O)N[C@@H](Cc1ccccc1)C(=O)NCCCCCC(N)=O [Compound 10, H–Ala–Phe–EACA–NH2] (H-Ala-Phe-[Ahx]-NH2)
18 | > 20 mM | NCCCCCNC(=O)CCCCCNC(=O)[C@H](CCCCN)NC(=O)[C@@H](N)Cc1ccccc1 [Compound 11, H–Phe–Lys–EACA–NH–(CH2)5–NH2]

Biological target: T4, uPA (Homo sapiens, UniProt P00749)
T4 construct: purchased Sigma (Schnelldorf, Germany)
Assay: Amidolytic activity of urokinase (substrate S-2444)
Assay type: biochemical
Details: amidolytic activity, S-2444, tris buffer pH 8.8
Procedure: as §1, §2

Row | Compound | IC50
19 | NCCCC[C@H](NC(=O)[C@@H](N)Cc1ccccc1)C(=O)NCCCCCC(N)=O [Compound 6, H–Phe–Lys–EACA–NH2] (H-Phe-Lys-[Ahx]-NH2) | > 20 mM
20 | C[C@@H](N)C(=O)N[C@@H](Cc1ccccc1)C(=O)N[C@@H](CCCCN)C(=O)NCCCCCC(N)=O [Compound 7, H–D-Ala–Phe–Lys–EACA–NH2] (H-[dA]FK[Ahx]-NH2) | > 20 mM
21 | C[C@H](N)C(=O)N[C@@H](Cc1ccccc1)C(=O)N[C@@H](CCCCN)C(=O)NCCCCCC(N)=O [Compound 8, H–Ala–Phe–Lys–EACA–NH2] (H-AFK[Ahx]-NH2) | > 20 mM

The next lines start with the values.

Row | IC50 | Compound
22 | > 20 mM | C[C@@H](N)C(=O)N[C@@H](Cc1ccccc1)C(=O)NCCCCCC(N)=O [Compound 9, H–D-Ala–Phe–EACA–NH2] (H-[dA]-Phe-[Ahx]-NH2)
23 | 2.61 ± 0.21 mM | C[C@H](N)C(=O)N[C@@H](Cc1ccccc1)C(=O)NCCCCCC(N)=O [Compound 10, H–Ala–Phe–EACA–NH2] (H-Ala-Phe-[Ahx]-NH2)
24 | > 20 mM | NCCCCCNC(=O)CCCCCNC(=O)[C@H](CCCCN)NC(=O)[C@@H](N)Cc1ccccc1 [Compound 11, H–Phe–Lys–EACA–NH–(CH2)5–NH2]

Tested on: trypsin
Assay: Amidolytic activity of trypsin (substrate Bzl-L-Arg-pNA)
Assay type: biochemical
Details: amidolytic activity, Bzl-L-Arg-pNA, borane buffer pH 7.5
Procedure: as §1, §2

Row | Compound | IC50
25 | NCCCC[C@H](NC(=O)[C@@H](N)Cc1ccccc1)C(=O)NCCCCCC(N)=O [Compound 6, H–Phe–Lys–EACA–NH2] (H-Phe-Lys-[Ahx]-NH2) | > 20 mM
26 | C[C@@H](N)C(=O)N[C@@H](Cc1ccccc1)C(=O)N[C@@H](CCCCN)C(=O)NCCCCCC(N)=O [Compound 7, H–D-Ala–Phe–Lys–EACA–NH2] (H-[dA]FK[Ahx]-NH2) | > 20 mM
27 | C[C@H](N)C(=O)N[C@@H](Cc1ccccc1)C(=O)N[C@@H](CCCCN)C(=O)NCCCCCC(N)=O [Compound 8, H–Ala–Phe–Lys–EACA–NH2] (H-AFK[Ahx]-NH2) | > 20 mM

Tested on: fibrinolysis in whole blood
Assay: Thromboelastometric (ROTEM) analysis of clot formation and fibrinolysis in whole blood
Parameters: species or system human
Details: human whole blood; control 174 s
Procedure: Five healthy volunteers, men (age range: 25–34 years)) with normal blood cell counts were entered into the study. Healthy volunteers had not taken medication known to affect platelet function and/or coagulation for at least 10 days before blood sampling.
Blood was stored at room temperature for 30 min after venipuncture and then was evaluated by thromboelastometric analyses.
Thromboelastometric measurements were performed using ROTEM system (Tem International GmbH, Manheim, Germany). […] We measured the parameters characterized kinetic of clot formation (clotting time, alpha angle), clot strength (maximal clot firmness; MCF), and fibrinolysis (percentage reduction of MCF, clot lysis time).

Row | Compound | clotting time (CT, coagulation time)
28 | C[C@@H](N)C(=O)N[C@@H](Cc1ccccc1)C(=O)N[C@@H](CCCCN)C(=O)NCCCCCC(N)=O [Compound 7, H–D-Ala–Phe–Lys–EACA–NH2] (H-[dA]FK[Ahx]-NH2) | 115 s
29 | C[C@H](N)C(=O)N[C@@H](Cc1ccccc1)C(=O)N[C@@H](CCCCN)C(=O)NCCCCCC(N)=O [Compound 8, H–Ala–Phe–Lys–EACA–NH2] (H-AFK[Ahx]-NH2) | 135 s

Same assay, conditions: human whole blood; whole blood alone about 61 %

Row | Compound | lysis of the clot in 45 min (from LI45)
30 | C[C@@H](N)C(=O)N[C@@H](Cc1ccccc1)C(=O)N[C@@H](CCCCN)C(=O)NCCCCCC(N)=O [Compound 7, H–D-Ala–Phe–Lys–EACA–NH2] (H-[dA]FK[Ahx]-NH2) | 21%
31 | C[C@H](N)C(=O)N[C@@H](Cc1ccccc1)C(=O)N[C@@H](CCCCN)C(=O)NCCCCCC(N)=O [Compound 8, H–Ala–Phe–Lys–EACA–NH2] (H-AFK[Ahx]-NH2) | 14%

Same assay, conditions: recalcified human whole blood, 140 ng/ml TF, 125 ng/ml tPA

Row | Compound | LOT lysis onset time (clot amplitude reduced by 15 %) | LT lysis time (clot reduced/lysed by 90 %)
32 | C[C@@H](N)C(=O)N[C@@H](Cc1ccccc1)C(=O)N[C@@H](CCCCN)C(=O)NCCCCCC(N)=O [Compound 7, H–D-Ala–Phe–Lys–EACA–NH2] (H-[dA]FK[Ahx]-NH2) | 2519 ± 176 s | 72 ± 4 min
33 | C[C@H](N)C(=O)N[C@@H](Cc1ccccc1)C(=O)N[C@@H](CCCCN)C(=O)NCCCCCC(N)=O [Compound 8, H–Ala–Phe–Lys–EACA–NH2] (H-AFK[Ahx]-NH2) | 2731 s | about 67 min

Same assay, conditions: recalcified human whole blood, 140 ng/ml TF, 125 ng/ml tPA; listed as H–Ala–Phe–Lys–EACA–NH2

Row | Compound | LOT lysis onset time (clot amplitude reduced by 15 %) | LT lysis time (clot reduced/lysed by 90 %)
34 | C[C@H](N)C(=O)N[C@@H](Cc1ccccc1)C(=O)N[C@@H](CCCCN)C(=O)NCCCCCC(N)=O [Compound 8, H–Ala–Phe–Lys–EACA–NH2] (H-AFK[Ahx]-NH2) | 2731 ± 160 s | 76 ± 6 min

Same assay, conditions: recalcified human whole blood, TF + tPA, 30 min

Row | Compound | LI30 lysis index, amplitude of clot after 30 min
35 | C[C@@H](N)C(=O)N[C@@H](Cc1ccccc1)C(=O)N[C@@H](CCCCN)C(=O)NCCCCCC(N)=O [Compound 7, H–D-Ala–Phe–Lys–EACA–NH2] (H-[dA]FK[Ahx]-NH2) | 97%
36 | C[C@H](N)C(=O)N[C@@H](Cc1ccccc1)C(=O)N[C@@H](CCCCN)C(=O)NCCCCCC(N)=O [Compound 8, H–Ala–Phe–Lys–EACA–NH2] (H-AFK[Ahx]-NH2) | 99%

Same assay, conditions: recalcified human whole blood, TF + tPA, 45 min

Row | Compound | LI45 lysis index, amplitude of clot after 45 min
37 | C[C@@H](N)C(=O)N[C@@H](Cc1ccccc1)C(=O)N[C@@H](CCCCN)C(=O)NCCCCCC(N)=O [Compound 7, H–D-Ala–Phe–Lys–EACA–NH2] (H-[dA]FK[Ahx]-NH2) | 79%
38 | C[C@H](N)C(=O)N[C@@H](Cc1ccccc1)C(=O)N[C@@H](CCCCN)C(=O)NCCCCCC(N)=O [Compound 8, H–Ala–Phe–Lys–EACA–NH2] (H-AFK[Ahx]-NH2) | 86%

Same assay, conditions: recalcified human whole blood, TF + tPA, 60 min

Row | Compound | LI60 lysis index, amplitude of clot after 60 min
39 | C[C@@H](N)C(=O)N[C@@H](Cc1ccccc1)C(=O)N[C@@H](CCCCN)C(=O)NCCCCCC(N)=O [Compound 7, H–D-Ala–Phe–Lys–EACA–NH2] (H-[dA]FK[Ahx]-NH2) | 28%
40 | C[C@H](N)C(=O)N[C@@H](Cc1ccccc1)C(=O)N[C@@H](CCCCN)C(=O)NCCCCCC(N)=O [Compound 8, H–Ala–Phe–Lys–EACA–NH2] (H-AFK[Ahx]-NH2) | 43%

— paper PMC5401710, “Peptides with 6-Aminohexanoic Acid: Synthesis and Evaluation as Plasmin Inhibitors” (International Journal of Peptide Research and Therapeutics, 2016)
